Active and inactive are the calls of the source. The rule behind the calls is not given here.
Legend:
[1] = tested on: Human immunodeficiency virus 1; assay: Antiviral activity against Human immunodeficiency virus 1 3B harboring reverse transcriptase M184V, M184I, K82N mutant infected in human MT2 cells assessed as inhibition of virus induced cytopathic effect selected on day 14 after 4 passages by PCR analysis; assay type: functional, organism-based; conditions: MT2, 336 h
[2] = tested on: Human immunodeficiency virus 1; assay: Antiviral activity against Human immunodeficiency virus 1 3B harboring reverse transcriptase M184V mutant infected in human MT2 cells assessed as inhibition of virus induced cytopathic effect selected on day 14 after 4 passages by PCR analysis; assay type: functional, organism-based; conditions: MT2, 336 h
[3] = tested on: Human immunodeficiency virus 1; assay: Antiviral activity against Human immunodeficiency virus 1 3B harboring reverse transcriptase M184V, M184I mutant infected in human MT2 cells assessed as inhibition of virus induced cytopathic effect selected on day 14 after 4 passages by PCR analysis; assay type: functional, organism-based; conditions: MT2, 336 h
[4] = tested on: Human immunodeficiency virus 1; assay: Antiviral activity against Human immunodeficiency virus 1 3B infected in human MT2 cells assessed as inhibition of virus induced cytopathic effect measured after 2 to 3 days by PCR; assay type: functional, organism-based
[5] = tested on: Human immunodeficiency virus 1; assay: Antiviral activity against Human immunodeficiency virus 1 Bal infected in human PBMC assessed as incorporation of [methly-3H]dTTP to viral DNA after 7 days by reverse transcriptase activity in presence of 100% human serum; conditions: 168 h
[6] = tested on: Human immunodeficiency virus 1; assay type: functional, organism-based; conditions: Human immunodeficiency virus 1, 3B, MT2
[7] = tested on: Human immunodeficiency virus 1; assay: Antiviral activity against Human immunodeficiency virus 1 3B harboring integrase T124A mutant gene infected in human MT2 cells assessed as inhibition of virus induced cytopathic effect selected after 14 passages measured after 2 to 3 days by PCR; assay type: functional, organism-based
[8] = tested on: Human immunodeficiency virus 1; assay type: functional, organism-based; conditions: Human immunodeficiency virus 1, 3B, MT2, 672 h
[9] = tested on: Human immunodeficiency virus 1; assay type: functional, organism-based; conditions: Human immunodeficiency virus 1, 3B, MT2; remark: listed apart in the source
[10] = tested on: Human immunodeficiency virus 1; assay type: functional, organism-based; conditions: Human immunodeficiency virus 1, 3B, MT2; remark: listed apart in the source
[11] = tested on: Human immunodeficiency virus 1; assay type: functional, organism-based; conditions: Human immunodeficiency virus 1, 3B, MT2; remark: listed apart in the source
[12] = tested on: Human immunodeficiency virus 1; assay: Antiviral activity against Human immunodeficiency virus 1 Bal infected in human PBMC assessed as incorporation of [methly-3H]dTTP to viral DNA after 7 days by reverse transcriptase activity in presence of 100% human serum relative to control
[13] = tested on: Human immunodeficiency virus 2; assay: Antiviral activity against Human immunodeficiency virus 2 clinical isolate obtained from HIV infected patients; assay type: functional, organism-based
[14] = Cytotoxicity against PHA-stimulated human PBMC after 2 days by Cell titer Glo luminescent assay; assay type: cell-based
[15] = tested on: Human immunodeficiency virus 1; assay: Antiviral activity against NNRTI-resistant Human immunodeficiency virus 1 NL432 harboring non-nucleotide reverse transcriptase […] mutant infected in human HeLa-CD4 cells after 2 to 3 days by reverse transcriptase activity; assay type: functional, organism-based; conditions: Human immunodeficiency virus 1, NL432, CD4; pooled result: one value given for 9 cell lines, strains, targets or settings
[16] = tested on: Human immunodeficiency virus 1; assay: Antiviral activity against Human immunodeficiency virus 1 NL432 infected in human MT4 cells assessed as effect on viral DNA production after 18 hrs by quantitative PCR; assay type: functional, organism-based
[17] = tested on: Human immunodeficiency virus 1; assay: Ratio of EC90 for protein-activated Human immunodeficiency virus 1 Bal infected in human PBMC to EC50 Human immunodeficiency virus 1 Bal infected in human PBMC; assay type: functional
[18] = tested on: Human immunodeficiency virus 1; assay: Antiviral activity against Human immunodeficiency virus 1 3B infected in human MT4 cells assessed as viral viability after 4 to 5 days by Cell titer Glo luminescent assay; assay type: functional, organism-based
[19] = tested on: Human immunodeficiency virus 1; assay: Antiviral activity against pseudo Human immunodeficiency virus 1 Bal infected in human CIP4 after 2 days by luciferase reporter gene assay in presence of 2 mg/ml AAG relative to control; assay type: functional
[20] = tested on: Human immunodeficiency virus 1; assay: Antiviral activity against Human immunodeficiency virus 1 3B infected in human MT4 cells assessed as incorporation of [methly-3H]dTTP to viral DNA after 7 days by reverse transcriptase activity in presence of […]; assay type: functional
[21] = tested on: Human immunodeficiency virus 1; assay: Antiviral activity against Human immunodeficiency virus 1 NL432 infected in human MT4 cells assessed as increase in 2-LTR circular DNA after 18 hrs by quantitative PCR; assay type: functional, organism-based
[22] = tested on: Human immunodeficiency virus 1; assay: Antiviral activity against Human immunodeficiency virus 1 NL432 infected in human MT4 cells assessed as inhibition of viral DNA integration after 18 hrs by quantitative PCR; assay type: functional, organism-based
[23] = tested on: Human immunodeficiency virus 1; assay: Antiviral activity against pseudo Human immunodeficiency virus 1 Bal infected in human CIP4 after 2 days by luciferase reporter gene assay; assay type: functional, organism-based; conditions: CIP4, 48 h
[24] = Cytotoxicity against unstimulated human PBMC after 2 days by Cell titer Glo luminescent assay; assay type: cell-based
[25] = Cytotoxicity against human U937 cells after 2 days by Cell titer Glo luminescent assay; assay type: cell-based, U-937
[26] = tested on: Human immunodeficiency virus 1; assay: Antiviral activity against pseudo Human immunodeficiency virus 1 Bal infected in human CIP4 after 2 days by luciferase reporter gene assay in presence of 40 mg/ml HAS relative to control; assay type: functional
[27] = Cytotoxicity against human MT4 cells after 2 days by Cell titer Glo luminescent assay; assay type: cell-based
[28] = tested on: Human immunodeficiency virus 1; assay: Antiviral activity against Human immunodeficiency virus 1 3B infected in human MT4 cells assessed as incorporation of [methly-3H]dTTP to viral DNA after 7 days by reverse transcriptase activity in presence of 20% human serum albumin relative to control; assay type: functional
[29] = Cytotoxicity against human IM9 cells after 2 days by Cell titer Glo luminescent assay; assay type: cell-based, IM-9
[30] = Cytotoxicity against human MOLT4 cells after 2 days by Cell titer Glo luminescent assay; assay type: cell-based, MOLT-4
[31] = tested on: Human immunodeficiency virus 1; assay: Antiviral activity against PI-resistant Human immunodeficiency virus 1 NL432 harboring […] L24I/M46I/L63P/A71V/G73S/V82Tmutant infected in human MT4 cells after 2 to 3 days by reverse transcriptase activity; assay type: functional, organism-based; conditions: Human immunodeficiency virus 1, NL432, MT4
[32] = tested on: Human immunodeficiency virus 1; assay: Antiviral activity against Human immunodeficiency virus 1 Bal infected in human PBMC assessed as incorporation of [methly-3H]dTTP to viral DNA after 7 days by reverse transcriptase activity; assay type: functional, organism-based; conditions: 168 h

## Nc1ccn([C@@H]2CS[C@H](CO)O2)c(=O)n1 [LAMIVUDINE]
[1]
  EC50: 800 nM
[2]
  EC50: 800 nM
[3]
  EC50: 800 nM
[4]
  EC50: 800 nM

## Cc1nnc(C(=O)NC(C)(C)c2nc(C(=O)NCc3ccc(F)cc3)c(O)c(=O)n2C)o1 [RALTEGRAVIR POTASSIUM]
[5]
  EC50: 5.6 nM
  EC90: 23 nM
[6]
  EC50: 1.3 nM
[7]
  EC50: 0.26 nM
[8]
  EC50: 0.26 nM
[9]
  EC50: 6.4 nM
[10]
  EC50: 6.4 nM
[4]
  EC50: 0.26 nM
[11]
  EC50: 32 nM

## COc1cc2c(cc1Cc1cccc(Cl)c1F)c(=O)c(C(=O)O)cn2[C@H](CO)C(C)C
[12]
  fold change (FC): 22
[5]
  EC50: 20 nM
  EC90: 78 nM

## C[C@@H]1CCO[C@H]2Cn3cc(C(=O)NCc4ccc(F)cc4F)c(=O)c([O-])c3C(=O)N12.[Na+] [DOLUTEGRAVIR SODIUM]
[13]
  EC50: 0.8 nM
[14]
  CC50 at 48 h: 52000 nM
[15]
  EC50: 1.3 nM
[16]
  Activity: inactive
[17]
  fold change (FC): 3
[12]
  fold change (FC): 75
[5]
  EC50: 38 nM
  EC90: 152 nM
[18]
  EC50: 0.71 nM
[19]
  fold change (FC): 2.1
[20]
  fold change (FC): 75
[21]
  Activity: Active
[22]
  inhibition: Active
[23]
  EC50: 2.2 nM
[24]
  CC50 at 48 h: 189000 nM
[25]
  CC50 at 48 h: 7000 nM
[26]
  fold change (FC): 11
[27]
  CC50 at 48 h: 14000 nM
[28]
  fold change (FC): 32
[29]
  CC50 at 48 h: 4800 nM
[30]
  CC50 at 48 h: 15000 nM
[31]
  EC50: 0.36 nM
[32]
  EC50: 0.51 nM
[4]
  EC50: 0.26 nM

Reference: ChEMBL document CHEMBL1687844, “In Vitro antiretroviral properties of S/GSK1349572, a next-generation HIV integrase inhibitor” (Antimicrob Agents Chemother, 2011)
